Test results taken from paper PMC4381330, “Identification of a novel selective agonist of PPARγ with no promotion of adipogenesis and less inhibition of osteoblastogenesis” (Scientific Reports, 2015).

How the values were obtained:
[1] = target: T1, human PPARγ-LBD (Homo sapiens, UniProt P37231); test: GAL4-PPARγ-LBD luciferase reporter gene assay in HEK293T cells; type: cell-based
T1 construct: expressed in transfected cells; host or cells: HEK293T
T1 sequence (P37231 172-476 isoform P37231-2): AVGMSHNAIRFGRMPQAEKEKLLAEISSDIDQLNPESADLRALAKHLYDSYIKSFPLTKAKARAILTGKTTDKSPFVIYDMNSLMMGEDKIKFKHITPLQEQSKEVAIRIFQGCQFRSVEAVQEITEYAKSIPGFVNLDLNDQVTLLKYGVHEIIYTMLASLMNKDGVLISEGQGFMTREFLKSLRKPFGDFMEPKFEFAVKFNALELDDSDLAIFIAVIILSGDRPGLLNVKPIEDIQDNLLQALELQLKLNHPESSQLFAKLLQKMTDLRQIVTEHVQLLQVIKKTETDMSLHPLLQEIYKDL
Protocol: (§1) The determination of nuclear receptor activation was performed as previously. Briefly, HEK293T cells were transfected with GAL4-pGL4-luc reporter plasmid and pBIND-PPARγ-LBD expression plasmid using Lipofectamine 2000 (Invitrogen) for 6 h before treatment with compounds for 20–24 h. Activity was determined by the Luciferase Assay System (Promega).

[2] = tested on: 3T3-L1 adipocytes; test: 2-NBDG glucose uptake assay in mature 3T3-L1 adipocytes; type: cell-based, mouse; settings: 1, 10, 30 μM, 24 h, 0.05 nM insulin, vs DMSO
Protocol: (§2) Glucose uptake activity was determined by measuring the uptake of 2-NBDG (2-(N-(7-nitrobenz-2-oxa-1, 3-diazol-4-yl)amino)-2-deoxyglucose, Invitrogen). […] Glucose uptake was initiated by addition of 1 mM 2-NBDG diluted in PBS. After 1 h, it was terminated by removing the contents of the wells and washing the cells with PBS. The glucose uptake was quantified by measuring the fluorescence intensity of cell lysates (prepared with neutral lysis buffer) at 485 nm excitation and 528 nm emission, and normalized to the corresponding protein content.

[3] = tested on: L02 normal hepatocytes; test: 2-NBDG glucose uptake assay in L02 cells; type: cell-based; settings: 24 h, absence or presence of insulin
Protocol: as §2

[4] = tested on: MC3T3-E1 preosteoblasts; test: Osteoblastic differentiation of MC3T3-E1 cells (Alizarin red S, Alp activity); type: cell-based; settings: F12016 1, 10, 30 μM
Protocol: MC3T3-E1 cells were cultured in α-MEM to confluency in 24-well plates and then cultured in differentiation medium (α-MEM supplemented with 200 μM ascorbic acid and 10 mM β-glycerophosphate) for 7, 14, and 21 days, which was replaced every 3 days. The cells were treated with DMSO, rosiglitazone, or F12016 at the start of differentiation. At day 8, 15 and 22, total RNA was isolated, and real-time PCR was performed as described below.
Mature osteoblasts were stained with Alizarin red S and Alp activity were measured at day 22. In brief, cells were fixed with 75% ethanol and stained with 40 mM Alizarin red S solution (pH 4.1–4.3) for 10 min. For Alp assay, the cells were harvested and sonicated on ice with two 30s-pulses. Supernatant of lysate was incubated with isopyknic 1.0 mg/ml pNPP (Sigma–aldrich) solution (1 M diethanolamine buffer, 0.5 mM magnesium chloride) for 30 min at 37°C. The reaction was measured at 405 nm. Relative ALP activity was normalized to the protein concentration.

[5] = target: T2, CDK5-mediated phosphorylation of PPARγ at Ser273 (Homo sapiens, UniProt P37231); test: In vitro CDK5 assay of the PPARγ LBD (western blot); type: biochemical; settings: to a similar extent as rosiglitazone
T2 construct: 0.5 μg purified PPARγ-LBD protein was incubated with 50 ng CDK5/p25 kinase (Millipore); Millipore (CDK5/p25 only)
T2 sequence (P37231 238-503 limits assumed): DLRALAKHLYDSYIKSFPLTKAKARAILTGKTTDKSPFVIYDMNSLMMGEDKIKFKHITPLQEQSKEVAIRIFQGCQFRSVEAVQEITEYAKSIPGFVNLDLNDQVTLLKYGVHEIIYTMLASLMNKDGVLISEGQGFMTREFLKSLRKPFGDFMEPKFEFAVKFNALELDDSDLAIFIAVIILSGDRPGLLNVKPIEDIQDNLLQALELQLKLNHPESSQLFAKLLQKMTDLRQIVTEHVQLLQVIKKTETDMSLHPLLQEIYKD
Protocol: The in vitro CDK assay was performed as described previously. Briefly, 0.5 μg purified PPARγ-LBD protein was incubated with 50 ng CDK5/p25 kinase (Millipore) in CDK assay buffer (Cell Signaling Technology, Danvers, MA, USA), followed by addition of 50 μM ATP and incubation for 30 min at room temperature. PPARγ-LBD was pre-incubated with test compounds for 30 min before performing the reaction. Phosphorylation of PPARγ Ser273 was analyzed by western blotting with an anti-CDK substrate antibody to detect phosphor-serine in the consensus motif for CDK substrate proteins (K/R-S-P-K/R) (Cell Signaling Technology).

[6] = target: T3, CDK5 (substrate Rb protein) (Homo sapiens, UniProt Q00535); test: In vitro CDK5-mediated phosphorylation of Rb protein; type: biochemical
T3 construct: purchased Millipore

[7] = tested on: PPARγ LBD mutants; type: cell-based, human; settings: compared with wild-type PPARγ LBD
Protocol: All chemicals were purchased from Sigma-Aldrich (St. Louis, MO, USA). All medium and serum were obtained from Gibco (Invitrogen). […] Mutations in pBIND-PPARγ-LBD were created by site-directed mutagenesis using the Fast Mutagenesis System (TransGen Biotech, Beijing, China).
as §1

T3 sequence (Q00535 whole entry): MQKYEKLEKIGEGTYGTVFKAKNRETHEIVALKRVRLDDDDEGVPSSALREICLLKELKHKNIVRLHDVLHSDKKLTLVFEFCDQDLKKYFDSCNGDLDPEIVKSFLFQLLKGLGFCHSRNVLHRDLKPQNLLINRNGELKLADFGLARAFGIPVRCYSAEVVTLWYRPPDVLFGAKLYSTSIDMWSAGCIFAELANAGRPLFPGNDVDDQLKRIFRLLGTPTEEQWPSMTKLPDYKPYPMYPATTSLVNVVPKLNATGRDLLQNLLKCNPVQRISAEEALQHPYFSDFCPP
T3 sequence (Q15078 99-307 partner limits assumed): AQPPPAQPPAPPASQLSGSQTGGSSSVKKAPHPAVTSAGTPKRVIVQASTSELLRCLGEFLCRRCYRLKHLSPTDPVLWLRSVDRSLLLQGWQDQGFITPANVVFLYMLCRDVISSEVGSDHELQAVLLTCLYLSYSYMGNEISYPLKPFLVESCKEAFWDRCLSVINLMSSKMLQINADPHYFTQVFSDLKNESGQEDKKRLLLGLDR

2-[2-(1, 2-dimethyl-1H-indol-3-yl)-2-oxo-acetylamino]-benzamide [Compound F12016]
transcriptional activity of PPARγ ([1]; 30 μM F12016, HEK293T): significantly induced transcriptional activity of PPARγ | maximal activation of GAL4-PPARγ ([1]; HEK293T, GAL4-PPARγ-LBD reporter): approximately 4 fold | EC50 ([1]; HEK293T, GAL4-PPARγ-LBD reporter, read-out: PPARγ WT EC50 (activation of GAL4-PPARγ)): 3.24 µM | PPARγ WT (RGZ %) ([1]; activation relative to rosiglitazone (RGZ)): 29.08% | concentration antagonizing rosiglitazone-dependent PPARγ activation ([1]; in presence of 1 μM rosiglitazone, reporter assay): ≥ 2.5 µM | insulin-stimulated glucose uptake (2-NBDG) [2]: enhanced the insulin-stimulated glucose uptake | insulin sensitivity and glucose transport (2-NBDG) [3]: significantly increased insulin sensitivity and promoted glucose transport | alkaline phosphatase (Alp) activity [4]: less reductions in mineralization and Alp activity | mineralization (Alizarin Red S) [4]: less reductions in mineralization | CDK5-mediated phosphorylation of PPARγ [5]: effectively blocked CDK5-mediated phosphorylation of PPARγ | phosphorylation of CDK5 substrate Rb protein [6]: no effect | activation of R288A, L340A and S342A mutants [7]: reduced the ability of F12016 to activate PPARγ | activation of S289A, H323A, H449A and Y473A mutants [7]: almost the same activity as the wild-type PPARγ LBD
